{"source": "patent US20240408130A1", "about": "“Combination of Silicon and Magnesium for the Prevention and Treatment of Muscle Cramps” (Bio Minerals NV, priority 2019, published 2024)", "key": {"muscle cramps [1]": {"test_system": "muscle cramps", "conditions": "cited from earlier work"}, "muscle cramps [2]": {"test_system": "muscle cramps", "assay": "Case reports of patients with muscle cramps given magnesium alone or Biosil plus Promagnor (Examples 1-7)", "assay_type": "in vivo, human", "conditions": "patient, recurrent skeletal muscle cramps for 23 years; magnesium salt alone, 450 mg per day", "text": "A patient had recurrent muscle cramps during a period of 23 years. Muscle cramps occurred in skeletal muscles in hands, lower arms and legs, as well as in intercostal muscles. […] Muscle cramps occurred during the day as well as during the night, at a frequency of several cramps per day. As a consequence, the muscle cramps prohibited working as a doctor and further prohibited swimming or any other sport. […] This ineffective result is consistent with the conclusions of Garrison (supra) and Young (supra), that magnesium supplementation is not effective in the treatment of muscle cramps.\nThe patient thereafter switched to a therapy comprising on a daily basis 10 mg stabilized silicic acid, wherein the silicic acid was in the form of orthosilicic acid and/or oligomers. The stabilizer was choline, which was administered at a daily dose of 200 mg. This combination is sold as Biosil® and is commercially available from Bio Minerals N.V., Destelbergen, Belgium. Use was made of the solid form of Biosil®. Two capsules per day were administered. The magnesium dose was 450 mg, and was in the form of magnesium phosphate, magnesium citrate, or magnesium bicarbonate. It was a dosage form of magnesium commercially supplied as Promagnor™ by Merck Consumer Healthcare nv, Overijse, Belgium. […]"}, "muscle cramps [3]": {"test_system": "muscle cramps", "assay": "Cross-over trial in patients with frequent muscle cramps, cramp frequency recorded daily in a diary (Example 8)", "assay_type": "in vivo, human", "method": "Female and male patients (age 33 to 86 years) experiencing frequent muscle cramps participated in a cross-over trial. The design of the cross-over trial is as follows: • Period 1:2 weeks orally 400 mg Mg/day (magnesium citrate), • Period 2:2 weeks orally 400 mg Mg/day+10 mg Si/day (magnesium citrate and choline-stabilized orthosilicic acid), • Period 3:2 weeks orally 200 mg Mg/day+5 mg Si/day (magnesium citrate and choline-stabilized orthosilicic acid). • Parameters: patients recorded the frequency of cramps daily in a diary."}, "muscle cramps [4]": {"test_system": "muscle cramps", "assay": "Comparative trial in 11 patients with frequent muscle cramps, cramp frequency recorded daily in a diary (Example 9)", "assay_type": "in vivo, human", "method": "Seven female and 4 male patients (age 27 to 86 years, mean age 56 years) experiencing frequent muscle cramps participated in a comparative trial with the following design: • Period 1: During 1 week 11 patients either • (a) continued with their oral magnesium supplement (6 patients), or • (b) changed from their oral magnesium treatment (2 patients) to an oral magnesium supplement of 180 mg Mg/day (magnesium malate), or • (c) changed from “no magnesium” pretreatment (3 patients) to an oral magnesium supplement of 180 mg Mg/day (magnesium malate). • One patient had taken quinine sulfate prior to period 1. • Period 2: all patients (n=11) took 4 weeks 360 mg Mg/day (magnesium malate)+10 mg Si/day (choline-stabilized orthosilicic acid, ch-OSA®) • Parameters: patients recorded daily the frequency of cramps in a diary."}}, "note": "“And” between values parts separate entries of the source, which are not always exact repeats. Identical values can stand only once. Counter-ions that a name gives are not always drawn."}
{"compound": "NCC1(CC(=O)O)CCCCC1", "note": "[Gabapentin]", "values": [{"measurement": "effect on symptom scores", "setting": "muscle cramps [1]; Class I clinical study, versus placebo", "value": "no difference was found between treatment and placebo with respect to any symptom score"}]}
{"compound": "COc1ccc([C@@H]2Sc3ccccc3N(CCN(C)C)C(=O)[C@@H]2OC(C)=O)cc1", "note": "[diltiazem hydrochloride]", "values": [{"measurement": "effect on intensity of cramps", "setting": "muscle cramps [1]; Class II study", "value": "no effect on the intensity of cramps"}]}
{"compound": "O=S(=O)([O-])[O-].[Mg+2]", "note": "[magnesium sulphate]", "values": [{"measurement": "effect on number of cramps, severity, duration, sleep disturbance", "setting": "muscle cramps [1]; Class II study, 300 mg dose, versus placebo", "value": "not superior to placebo for number of cramps, severity, duration or sleep disturbance"}]}
{"compound": "[Mg]", "note": "[magnesium]", "values": [{"measurement": "effect on recurrent muscle cramps", "setting": "muscle cramps [2]", "value": "not effective and did not provide any relief or inhibition of the muscle cramps"}, {"measurement": "conclusion on frequency of cramps", "setting": "muscle cramps [3]; magnesium alone versus combination with bioavailable silicon supplement, Example 8", "value": "not effective in reducing the frequency of cramps compared to the combination"}, {"measurement": "Number of cramps Mean ± SE", "setting": "muscle cramps [4]; Week 1: own oral magnesium supplement or 180 mg Mg/day (magnesium malate), n=11", "value": "18.9 ± 7.4^"}, {"measurement": "conclusion on relief of muscle cramps", "setting": "muscle cramps [4]; monotherapy of oral magnesium, Example 9", "value": "not effective in relieving muscle cramps"}, {"measurement": "cramp prophylaxis", "setting": "muscle cramps [1]; Garrison 2012 Cochrane review of seven trials, older adults with skeletal muscle cramps", "value": "unlikely that magnesium supplementation provides a clinically meaningful cramp prophylaxis to older adults"}, {"measurement": "effect on leg cramps in pregnancy", "setting": "muscle cramps [1]; Leal de Araújo 2020, oral magnesium supplementation during pregnancy", "value": "did not reduce the occurrence and frequency of episodes of leg cramps"}]}
{"compound": "CCN(CC)CCOC(=O)C(Cc1cccc2ccccc12)CC1CCCO1", "note": "(stereo not drawn) [naftidrofuryl oxalate]", "values": [{"measurement": "effect on cramps and sleep disturbance", "setting": "muscle cramps [1]; literature study", "value": "no effect on the mean number of cramps, number of nights with cramps or sleep disturbance"}]}
{"compound": "C=C[C@H]1C[N@@]2CC[C@H]1C[C@H]2[C@H](O)c1ccnc2ccc(OC)cc12", "note": "[quinine]", "values": [{"measurement": "side effects", "setting": "muscle cramps [1]; reported in the literature (Katzberg 2010; FDA alert 2012)", "value": "common and serious side effects"}, {"measurement": "effect on idiopathic leg cramps", "setting": "muscle cramps [1]; systematic reviews and randomized clinical trials (Young 2015), versus placebo", "value": "may reduce the frequency of idiopathic leg cramps at night compared to placebo"}]}
{"compound": "magnesium citrate [Mg]", "values": [{"measurement": "cramps/day, individual patients", "setting": "muscle cramps [3]; A: 2 weeks 400 mg Mg/day orally (magnesium citrate), patients 1-6, one value per patient", "value": "0.43 cramps/day (2×) and 1.07 cramps/day and 0.36 cramps/day and 1.79 cramps/day and 0.5 cramps/day"}, {"measurement": "cramps/day, Mean", "setting": "muscle cramps [3]; A: 2 weeks 400 mg Mg/day orally, mean of 6 patients", "value": 0.76, "unit": "cramps/day"}, {"measurement": "effect on number of cramps", "setting": "muscle cramps [1]; Class II study, 900 mg", "value": "could not conclude that there was a significant improvement in the number of cramps"}]}
